Results from publication PMC4618646 (Pharmacology Research & Perspectives, 2015).
≈ marks a conversion by molar mass, not a printed value. Read-outs that look alike come from different tables or passages of the source.

Key:
[1] = ref Mikus et al. [2013]; cited from earlier work
KDR (VEGFR2) = assay: KDR inhibition measured in HUVEC cells; type: cell-based, human; details: from KDR IC50 data of ref McTigue et al. [2012]
Cathepsin S = Cathepsin S (Homo sapiens, UniProt P25774); assay: Cathepsin S; type: biochemical
Sequence of Cathepsin S (P25774 115-331): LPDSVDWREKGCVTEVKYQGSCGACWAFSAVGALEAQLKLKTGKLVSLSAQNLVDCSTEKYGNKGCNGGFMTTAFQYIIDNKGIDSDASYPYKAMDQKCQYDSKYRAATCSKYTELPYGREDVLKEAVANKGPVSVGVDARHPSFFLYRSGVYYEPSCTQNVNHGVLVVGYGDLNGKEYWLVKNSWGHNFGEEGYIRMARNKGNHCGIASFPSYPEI

[2] = molecular target: T1, Fatty acid amide hydrolase (FAAH) (Rattus norvegicus, UniProt P97612); assay: Fatty acid amide hydrolase; type: biochemical
T1 sequence (P97612 1-579): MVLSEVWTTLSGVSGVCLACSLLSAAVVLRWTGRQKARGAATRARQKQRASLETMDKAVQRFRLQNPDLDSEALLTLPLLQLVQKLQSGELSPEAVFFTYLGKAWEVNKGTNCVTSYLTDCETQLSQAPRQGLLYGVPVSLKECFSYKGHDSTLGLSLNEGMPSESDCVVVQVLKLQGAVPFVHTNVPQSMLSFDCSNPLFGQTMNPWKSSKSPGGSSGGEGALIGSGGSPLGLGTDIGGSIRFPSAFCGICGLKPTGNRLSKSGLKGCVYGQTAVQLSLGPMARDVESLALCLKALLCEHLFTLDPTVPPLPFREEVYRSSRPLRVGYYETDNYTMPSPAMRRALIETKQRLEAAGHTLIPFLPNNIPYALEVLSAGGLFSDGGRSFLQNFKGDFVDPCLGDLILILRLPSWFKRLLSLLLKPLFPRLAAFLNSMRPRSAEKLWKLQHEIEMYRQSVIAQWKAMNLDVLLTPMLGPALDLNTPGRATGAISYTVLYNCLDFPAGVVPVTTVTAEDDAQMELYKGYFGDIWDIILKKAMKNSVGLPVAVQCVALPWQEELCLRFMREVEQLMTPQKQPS

Cathepsin L = Cathepsin L (Homo sapiens, UniProt P07711); assay: Cathepsin L; type: biochemical
Sequence of Cathepsin L (P07711 114-333): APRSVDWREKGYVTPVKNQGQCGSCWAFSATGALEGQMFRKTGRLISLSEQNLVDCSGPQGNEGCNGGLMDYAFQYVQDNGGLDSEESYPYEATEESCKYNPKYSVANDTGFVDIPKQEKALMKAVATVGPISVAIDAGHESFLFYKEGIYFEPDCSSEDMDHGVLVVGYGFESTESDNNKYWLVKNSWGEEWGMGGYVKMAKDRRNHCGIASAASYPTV

Lipoxygenase 5-LO = molecular target: T2, Lipoxygenase 5-LO (Homo sapiens, UniProt P09917); assay: Lipoxygenase 5-LO; type: biochemical
T2 sequence (P09917 1-674): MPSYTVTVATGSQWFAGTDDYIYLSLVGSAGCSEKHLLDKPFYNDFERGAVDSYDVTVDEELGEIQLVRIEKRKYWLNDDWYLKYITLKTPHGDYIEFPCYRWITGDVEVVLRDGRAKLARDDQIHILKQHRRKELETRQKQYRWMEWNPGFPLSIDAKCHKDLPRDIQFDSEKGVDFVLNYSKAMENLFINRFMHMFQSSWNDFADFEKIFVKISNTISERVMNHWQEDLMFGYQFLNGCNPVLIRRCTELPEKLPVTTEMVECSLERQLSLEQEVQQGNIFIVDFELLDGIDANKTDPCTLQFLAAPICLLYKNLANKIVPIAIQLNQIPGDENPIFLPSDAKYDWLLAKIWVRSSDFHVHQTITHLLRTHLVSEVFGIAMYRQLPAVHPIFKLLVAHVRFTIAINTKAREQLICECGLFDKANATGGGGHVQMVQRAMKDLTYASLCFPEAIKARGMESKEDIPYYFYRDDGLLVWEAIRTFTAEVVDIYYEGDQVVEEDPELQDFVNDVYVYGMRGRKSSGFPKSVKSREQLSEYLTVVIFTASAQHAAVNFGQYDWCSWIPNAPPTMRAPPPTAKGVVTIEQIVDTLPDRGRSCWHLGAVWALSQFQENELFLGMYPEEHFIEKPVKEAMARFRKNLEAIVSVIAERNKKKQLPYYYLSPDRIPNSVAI

Adenosine A3 receptor [3] = molecular target: T3, Adenosine A3 receptor (Homo sapiens, UniProt P0DMS8); assay: Adenosine A3 receptor; details: Radioligand binding Ki
T3 sequence (P0DMS8 1-318): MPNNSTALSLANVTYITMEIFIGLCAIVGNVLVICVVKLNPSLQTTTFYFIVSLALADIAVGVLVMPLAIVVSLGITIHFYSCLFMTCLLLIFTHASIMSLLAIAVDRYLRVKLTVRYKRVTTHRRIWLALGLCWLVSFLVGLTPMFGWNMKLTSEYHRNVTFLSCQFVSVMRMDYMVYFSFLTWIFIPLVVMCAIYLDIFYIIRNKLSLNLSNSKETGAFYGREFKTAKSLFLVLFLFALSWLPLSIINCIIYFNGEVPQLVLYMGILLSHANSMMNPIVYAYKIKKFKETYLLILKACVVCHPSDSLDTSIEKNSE

human kinases = type: binding; details: 10 μmol/L single concentration screen; for 197 of 387 kinases
Phosphodiesterase PDE5 = Phosphodiesterase PDE5 (Homo sapiens, UniProt O76074); assay: Phosphodiesterase PDE5; type: biochemical
[4] = tested on: Purified human recombinant kinases; type: biochemical; details: median estimate of curve top showing <50% inhibition
Transporter, monoamine = assay: Transporter, monoamine; type: binding; details: Vesicular monoamine transporter (rabbit)
Adenosine A3 receptor [5] = molecular target: T3, Adenosine A3 receptor; type: biochemical
[6] = tested on: 314 diverse molecular targets; assay: Eurofins Panlabs broad in vitro panel, 10 μmol/L single concentration screen; details: at nine of 314 targets
[7] = molecular target: T4, UDP glucuronosyltransferase, UGT1A1 (Homo sapiens, UniProt P22309); assay: UDP glucuronosyltransferase, UGT1A1; type: biochemical
T4 sequence (P22309 26-533): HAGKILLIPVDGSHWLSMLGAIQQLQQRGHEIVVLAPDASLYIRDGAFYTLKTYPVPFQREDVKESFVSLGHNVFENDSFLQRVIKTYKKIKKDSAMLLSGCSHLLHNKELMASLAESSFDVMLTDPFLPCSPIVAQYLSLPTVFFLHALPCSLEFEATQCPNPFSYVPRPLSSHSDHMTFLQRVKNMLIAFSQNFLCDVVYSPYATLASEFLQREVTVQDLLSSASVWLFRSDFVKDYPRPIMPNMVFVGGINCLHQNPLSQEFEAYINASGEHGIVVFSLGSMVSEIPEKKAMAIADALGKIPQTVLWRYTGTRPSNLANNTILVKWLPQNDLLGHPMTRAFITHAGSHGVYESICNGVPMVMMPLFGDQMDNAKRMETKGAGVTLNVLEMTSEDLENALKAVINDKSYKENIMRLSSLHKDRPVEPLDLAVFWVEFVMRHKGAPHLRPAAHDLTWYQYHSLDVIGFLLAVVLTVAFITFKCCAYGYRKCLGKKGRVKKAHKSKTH

[8] = type: physicochemical
adenosine transporter = type: cell-based, human
[9] = phase II clinical trials for RA; ref Silverman et al. [2008]; cited from earlier work

COc1ccc(C(=O)Nc2nc3ccccc3c(NCc3ccccc3)c2C#N)cc1 [SSR161421]
effects in animal models of asthma [1]: beneficial effects

COc1cc2c(Oc3ccc4[nH]c(C)cc4c3F)ncnc2cc1OCCCN1CCCC1 [cediranib]
fold more potent at KDR than sunitinib (KDR (VEGFR2)): ~31 fold

COc1cc(Nc2ncc(F)c(Nc3ccc4c(n3)NC(=O)C(C)(C)O4)n2)cc(OC)c1OC [R406]
Mode of action (Cathepsin S; Cathepsin S (human)): Inhibitor | IC50 (Cathepsin S; Radioligand binding or enzyme activity IC50, Cathepsin S (human)): 11900 nM | Mode of action ([2]; Fatty acid amide hydrolase (rat)): Inhibitor | IC50 ([2]; Radioligand binding or enzyme activity IC50, Fatty acid amide hydrolase (rat)): 1510 nM | Mode of action (Cathepsin L; Cathepsin L (human)): Inhibitor | IC50 (Cathepsin L; Radioligand binding or enzyme activity IC50, Cathepsin L (human)): 5930 nM | Mode of action (Lipoxygenase 5-LO; 5-Lipoxygenase (human)): Inhibitor | IC50 (Lipoxygenase 5-LO; Radioligand binding or enzyme activity IC50, 5-Lipoxygenase (human)): 5500 nM | Ki (Adenosine A3 receptor [3]): 17 nM | inhibition of the qPCR signal (human kinases): ≥ 80% | Mode of action (Phosphodiesterase PDE5; Phosphodiesterase PDE5 (human)): Inhibitor | IC50 (Phosphodiesterase PDE5; Radioligand binding or enzyme activity IC50, Phosphodiesterase PDE5 (human)): 308 nM | activity in the remaining 19 of 139 kinase activity assays [4]: inactive | Ki (Transporter, monoamine; read-out: Radioligand binding Ki): 1630 nM | IC50 (Transporter, monoamine; read-out: Radioligand binding or enzyme activity IC50): 1960 nM | Mode of action (Adenosine A3 receptor [5]; Adenosine A3 receptor (human)): Antagonist | effect of R406 on its own on GTPγS binding (Adenosine A3 receptor [5]; concentrations up to 10 μmol/L, absence of agonist): no effect | inhibition [6]: > 50% | IC50 ([7]; Radioligand binding or enzyme activity IC50, UDP glucuronosyltransferase UGT1A1 (human)): 143 nM | Mode of action ([7]; UDP glucuronosyltransferase UGT1A1 (human)): Inhibitor | solubility ([8]; solubility in DMSO, 100% DMSO): ~140 mM (≈ 65.9 mg/mL) | solubility ([8]; solubility in phosphate-buffered saline, physiological pH): 0.0002 mM (≈ 9.41e-05 mg/mL) | Mode of action (adenosine transporter; Adenosine transporter (human)): Inhibitor | IC50 (adenosine transporter; read-out: IC50, inhibition of adenosine uptake, U937 cells, [^3H]adenosine): 100 nM

CNC(=O)[C@H]1O[C@@H](n2cnc3c(NCc4cccc(I)c4)ncnc32)[C@H](O)[C@@H]1O [CF101]
adverse effects on blood pressure [9]: no adverse effects on blood pressure
